Results on three compounds are retold here after patent US20240310368A1, “DETECTION KIT FOR CATECHOLAMINES AND METABOLITES THEREOF IN PLASMA/URINE AND DETECTION METHOD THEREOF” (Calibra Scientific, Inc., priority 2023, published 2024).

Data set [1] in a line: Acceleration test of plasma samples with stabilizers (30° C. for 1.5 days, against control plasma stored at −95° C. to −65° C.), LC-MS/MS Area/IS Area. The procedure: Samples were collected in EDTA-anticoagulant blood collection tubes and then rapidly subjected to […] centrifugation at 2-8° C. to separate plasma. 0.95 mL of the plasma was transferred into centrifuge tubes. After 50 μL of the stabilizer was added for uniform mixing, the plasma samples were stored by refrigeration or freezing.
• (1) 500 μL of plasma/urine samples to be tested were taken, and 50 μL of the internal standard solution and 500 μL of the buffer solution were sequentially added for vertex mixing to obtain diluted samples. • (2) The magnetic medium composite material suspension was subjected to full vortex treatment to reach a suspension state, and then subsequent operation was performed. • (3) Different reagents were added into wells of a preprocessing plate according to the follow operation: adding 200 μL of the magnetic medium composite material suspension in column 1, adding 500 μL of the balance solution in column 2, adding 850 μL of the diluted samples in column 3, adding 500 μL of the balance solution in column 4, adding 200 μL of a rinsing solution in column 5, and adding 100 μL of the elution solution in column 6. • (4) An extraction operation procedure was carried out, as shown in Table 5.
Each group of the plasma samples were stored at 30° C. for 1.5 days, and plasma without addition of any compounds stored at −95° C. to −65° C. was used as a control. […] The stabilizing effect of the single-component stabilizers on the plasma samples was investigated.
The stabilizers were mixed with plasma (the volume ratio of the stabilizers to plasma samples was 1:19), and high concentration plasma samples and low concentration plasma samples were prepared by the method provided in Example 1.
With plasma stored at −95° C. to −65° C. as a control, the above plasma samples were separately stored at 30° C. for 1.5 days to investigate the stability. […]

Data set [2] in a line: Stability of ascorbic acid and glutathione in stabilizers accelerated at 37° C. for 14 days against an unaccelerated stabilizer. It counts as physicochemical. Conditions: for stability of ascorbic acid and glutathione in stabilizers after acceleration: 37° C. for 14 days (equivalent to 1 year at 2-8° C.); for Relative deviation %: after acceleration at 37° C. for 14 days vs new formulations. The procedure: Stabilizers (Example 1) were accelerated at 37° C. for 14 days (equivalent to 1 year at 2-8° C.) and then compared with an unaccelerated stabilizer.

A short description of data set [3]: pH adjustment ability of urine diluents to standard products and urine samples (pH test papers). It counts as physicochemical, human. Conditions: 20 μL urine + 480 μL diluent + 50 μL internal standard solution + 500 μL buffer solution. The procedure:
In the present example, standard products of catecholamines in urine and urine samples from different sources (Sample 1 to Sample 6 are urine samples with different pH values) were selected to carry out an experiment. The urine samples were collected within 24 h by the method provided in Example 1, 20 μL of the urine samples were taken, 480 μL of urine diluents shown in Table 30 were added, respectively, then vortex mixing was performed, and 50 μL of an internal standard solution and 500 μL of a buffer solution were sequentially added to obtain urine samples to be tested. Then, pH test papers were used to detect whether the urine samples to be tested were neutral. The pH adjustment ability of different urine diluents to standard products and samples was investigated.
However, some samples are still acidic or alkaline. Thus, ammonium acetate was added on the basis of the formic acid, and different proportions of the formic acid and the ammonium acetate were investigated.

[4] abbreviates: plasma at a high concentration level, plasma containing 50 μg/mL of the component, control plasma 0.624.
Where [5] appears, read: plasma at a high concentration level, plasma containing 50 μg/mL of the component, control plasma 1.522.
Where [6] appears, read: plasma at a high concentration level, plasma containing 50 μg/mL of the component, control plasma 2.27.
The mark [7] stands for this setting: plasma at a high concentration level, plasma containing 200 μg/mL of the component, control plasma 0.624.
The mark [8] stands for this setting: plasma at a high concentration level, plasma containing 200 μg/mL of the component, control plasma 1.522.
Setting [9] is: plasma at a high concentration level, plasma containing 200 μg/mL of the component, control plasma 2.27.
[10] abbreviates: plasma at a low concentration level, plasma containing 50 μg/mL of the component, control plasma 0.079.
Where [11] appears, read: plasma at a low concentration level, plasma containing 50 μg/mL of the component, control plasma 0.219.
Where [12] appears, read: plasma at a low concentration level, plasma containing 50 μg/mL of the component, control plasma 0.233.
Where [13] appears, read: plasma at a low concentration level, plasma containing 200 μg/mL of the component, control plasma 0.079.
[14] abbreviates: plasma at a low concentration level, plasma containing 200 μg/mL of the component, control plasma 0.219.
Setting [15] is: plasma at a low concentration level, plasma containing 200 μg/mL of the component, control plasma 0.233.
The mark [16] stands for this setting: After acceleration (stabilizer of Example 1, 37° C. for 14 days).
The mark [17] stands for this setting: New formulations (unaccelerated stabilizer of Example 1).

Several values for one entry are separate records, joined by “and”; a condition that tells them apart may be missing. Equal entries are not always repeated.

For the compound `O=C1O[C@H]([C@@H](O)CO)C(O)=C1O` [ascorbic acid], the “Ratio (Area/IS Area) E” value stood at 0 in data set [1] (setting [4]), 0.048 in data set [1] (setting [7]), 0 in data set [1] (setting [10]) and 0 in data set [1] (setting [13]). Moreover, the “Ratio (Area/IS Area) NE” value in data set [1] (setting [5]), in data set [1] (setting [8]), in data set [1] (setting [11]) and in data set [1] (setting [14]) was 0 each time. Besides, the “Ratio (Area/IS Area) DA” value in data set [1] (setting [6]), in data set [1] (setting [9]), in data set [1] (setting [12]) and in data set [1] (setting [15]) was 0 each time. Besides, the “stability of ascorbic acid and glutathione in stabilizers after acceleration” value in data set [2] is listed as “maintained stable”. The Area was 6.96E+05 and 6.32E+05 and 6.08E+05 in data set [2] (setting [16]); 6.88E+05 and 7.26E+05 and 6.96E+05 in data set [2] (setting [17]). Also, the Relative deviation % in data set [2] is recorded as −8.2%.

Take `O=CO` [formic acid]: the “Ratio (Area/IS Area) E” value came to 0.295 in data set [1] (plasma at a high concentration level, plasma containing 0.5% of the acid, control plasma 0.624); 0 in data set [1] (plasma at a high concentration level, plasma containing 2.0% of the acid, control plasma 0.624); 0 in data set [1] (plasma at a low concentration level, plasma containing 0.5% of the acid, control plasma 0.079); 0 in data set [1] (plasma at a low concentration level, plasma containing 2.0% of the acid, control plasma 0.079). Besides, the “Ratio (Area/IS Area) NE” value in data set [1] (plasma at a high concentration level, plasma containing 0.5% of the acid, control plasma 1.522) turned out to be 0; in data set [1] (plasma at a high concentration level, plasma containing 2.0% of the acid, control plasma 1.522) it was 0; in data set [1] (plasma at a low concentration level, plasma containing 0.5% of the acid, control plasma 0.219), 0; in data set [1] (plasma at a low concentration level, plasma containing 2.0% of the acid, control plasma 0.219), 0. For the same compound, the “Ratio (Area/IS Area) DA” value in data set [1] (plasma at a high concentration level, plasma containing 0.5% of the acid, control plasma 2.27) was 0; in data set [1] (plasma at a high concentration level, plasma containing 2.0% of the acid, control plasma 2.27), 0; in data set [1] (plasma at a low concentration level, plasma containing 0.5% of the acid, control plasma 0.233), 0; in data set [1] (plasma at a low concentration level, plasma containing 2.0% of the acid, control plasma 0.233), 0. The “stabilizing effect on catecholamines in plasma” value in data set [1] (single components as stabilizers) is “no obvious stabilizing effect”. Further, in data set [3], the “pH adjustment ability of urine diluent to standard products and samples” value is on record as “uniformly adjust most of samples to neutral”.

Turning to `N[C@@H](CCC(=O)N[C@@H](CS)C(=O)NCC(=O)O)C(=O)O` [glutathione], the “Ratio (Area/IS Area) E” value in data set [1] (setting [4]), in data set [1] (setting [7]), in data set [1] (setting [10]) and in data set [1] (setting [13]) was 0 in each case. The “Ratio (Area/IS Area) NE” value in data set [1] (setting [5]), in data set [1] (setting [8]), in data set [1] (setting [11]) and in data set [1] (setting [14]) was 0 throughout. The “Ratio (Area/IS Area) DA” value in data set [1] (setting [6]), in data set [1] (setting [9]), in data set [1] (setting [12]) and in data set [1] (setting [15]) was 0 throughout. Further, the “stability of ascorbic acid and glutathione in stabilizers after acceleration” value in data set [2] is reported as “maintained stable”. For the same compound, the Area in data set [2] (setting [16]) was 7.45E+04 and 7.62E+04 and 8.98E+04; in data set [2] (setting [17]), 8.44E+04. For the same compound, the Relative deviation % in data set [2] was −5.0%.
